From the NIST ThermoML archive (doi:10.1016/j.jct.2016.03.034)

Assay: xn = mol fraction of the nth substance listed
Conditions: 100 kPa, Liquid; for viscosity: Capillary tube (Ostwald / Ubbelohde) method; for mass density: Vibrating tube method

O=C1CCCO1 [γ-butyrolactone] + CCn1cc[n+](C)c1.O=S(=O)([N-]S(=O)(=O)C(F)(F)F)C(F)(F)F
Conditions | mass density [kg/m3] | viscosity [mPa·s]
293.15 K, x2 = 0 | 1129.49 | 1.86
293.15 K, x2 = 0.05 | 1189.18 | 2.57
293.15 K, x2 = 0.0995 | – | 3.12
293.15 K, x2 = 0.0996 | 1236.95 | –
293.15 K, x2 = 0.1502 | 1277.22 | 3.83
293.15 K, x2 = 0.2006 | 1310.83 | 4.63
293.15 K, x2 = 0.3 | – | 6.64
293.15 K, x2 = 0.3001 | 1363.28 | –
293.15 K, x2 = 0.4 | – | 9.2
293.15 K, x2 = 0.4021 | 1403.82 | –
293.15 K, x2 = 0.4899 | – | 11.95
293.15 K, x2 = 0.4992 | 1434.01 | –
293.15 K, x2 = 0.6103 | 1461.49 | 16.41
293.15 K, x2 = 0.6912 | 1478 | –
293.15 K, x2 = 0.6995 | – | 20.33
293.15 K, x2 = 0.7817 | 1493.78 | –
293.15 K, x2 = 0.7927 | – | 24.88
293.15 K, x2 = 0.8991 | 1510.97 | 30.67
293.15 K, x2 = 0.9532 | – | 34.26
298.15 K, x2 = 0 | 1124.59 | 1.71
298.15 K, x2 = 0.05 | 1184.22 | 2.41
298.15 K, x2 = 0.0995 | – | 2.94
298.15 K, x2 = 0.0996 | 1231.94 | –
298.15 K, x2 = 0.1502 | 1272.16 | 3.61
298.15 K, x2 = 0.2006 | 1305.75 | 4.35
298.15 K, x2 = 0.3 | – | 6.16
298.15 K, x2 = 0.3001 | 1358.16 | –
298.15 K, x2 = 0.4 | – | 8.37
298.15 K, x2 = 0.4021 | 1398.7 | –
298.15 K, x2 = 0.4899 | – | 10.72
298.15 K, x2 = 0.4992 | 1428.88 | –
298.15 K, x2 = 0.6103 | 1456.36 | 14.47
298.15 K, x2 = 0.6912 | 1472.86 | –
298.15 K, x2 = 0.6995 | – | 17.71
298.15 K, x2 = 0.7817 | 1488.64 | –
298.15 K, x2 = 0.7927 | – | 21.48
298.15 K, x2 = 0.8991 | 1505.84 | 26.32
298.15 K, x2 = 0.9532 | – | 29.01
303.15 K, x2 = 0 | 1119.68 | 1.58
303.15 K, x2 = 0.05 | 1179.23 | 2.24
303.15 K, x2 = 0.0995 | – | 2.71
303.15 K, x2 = 0.0996 | 1226.88 | –
303.15 K, x2 = 0.1502 | 1267.09 | 3.3
303.15 K, x2 = 0.2006 | 1300.66 | 3.97
303.15 K, x2 = 0.3 | – | 5.57
303.15 K, x2 = 0.3001 | 1353.03 | –
303.15 K, x2 = 0.4 | – | 7.49
303.15 K, x2 = 0.4021 | 1393.55 | –
303.15 K, x2 = 0.4899 | – | 9.49
303.15 K, x2 = 0.4992 | 1423.73 | –
303.15 K, x2 = 0.6103 | 1451.19 | 12.66
303.15 K, x2 = 0.6912 | 1467.67 | –
303.15 K, x2 = 0.6995 | – | 15.38
303.15 K, x2 = 0.7817 | 1483.46 | –
303.15 K, x2 = 0.7927 | – | 18.53
303.15 K, x2 = 0.8991 | 1500.66 | 22.48
303.15 K, x2 = 0.9532 | – | 24.66
308.15 K, x2 = 0 | 1114.78 | 1.47
308.15 K, x2 = 0.05 | 1174.26 | 2.07
308.15 K, x2 = 0.0995 | – | 2.48
308.15 K, x2 = 0.0996 | 1221.85 | –
308.15 K, x2 = 0.1502 | 1262.03 | 3.03
308.15 K, x2 = 0.2006 | 1295.56 | 3.66
308.15 K, x2 = 0.3 | – | 5.09
308.15 K, x2 = 0.3001 | 1347.9 | –
308.15 K, x2 = 0.4 | – | 6.72
308.15 K, x2 = 0.4021 | 1388.4 | –
308.15 K, x2 = 0.4899 | – | 8.39
308.15 K, x2 = 0.4992 | 1418.56 | –
308.15 K, x2 = 0.6103 | 1446.01 | 11.08
308.15 K, x2 = 0.6912 | 1462.49 | –
308.15 K, x2 = 0.6995 | – | 13.34
308.15 K, x2 = 0.7817 | 1478.28 | –
308.15 K, x2 = 0.7927 | – | 15.98
308.15 K, x2 = 0.8991 | 1495.47 | 19.26
308.15 K, x2 = 0.9532 | – | 21.15
313.15 K, x2 = 0 | 1109.87 | 1.37
313.15 K, x2 = 0.05 | 1169.29 | 1.92
313.15 K, x2 = 0.0995 | – | 2.32
313.15 K, x2 = 0.0996 | 1216.89 | –
313.15 K, x2 = 0.1502 | 1257.03 | 2.81
313.15 K, x2 = 0.2006 | 1290.56 | 3.37
313.15 K, x2 = 0.3 | – | 4.63
313.15 K, x2 = 0.3001 | 1342.87 | –
313.15 K, x2 = 0.4 | – | 6.09
313.15 K, x2 = 0.4021 | 1383.33 | –
313.15 K, x2 = 0.4899 | – | 7.55
313.15 K, x2 = 0.4992 | 1413.46 | –
313.15 K, x2 = 0.6103 | 1440.89 | 9.84
313.15 K, x2 = 0.6912 | 1457.37 | –
313.15 K, x2 = 0.6995 | – | 11.77
313.15 K, x2 = 0.7817 | 1473.14 | –
313.15 K, x2 = 0.7927 | – | 13.93
313.15 K, x2 = 0.8991 | 1490.3 | 16.67
313.15 K, x2 = 0.9532 | – | 18.26
318.15 K, x2 = 0 | 1104.96 | 1.28
318.15 K, x2 = 0.05 | 1164.33 | 1.76
318.15 K, x2 = 0.0995 | – | 2.12
318.15 K, x2 = 0.0996 | 1211.89 | –
318.15 K, x2 = 0.1502 | 1252 | 2.57
318.15 K, x2 = 0.2006 | 1285.51 | 3.07
318.15 K, x2 = 0.3 | – | 4.15
318.15 K, x2 = 0.3001 | 1337.8 | –
318.15 K, x2 = 0.4 | – | 5.46
318.15 K, x2 = 0.4021 | 1378.25 | –
318.15 K, x2 = 0.4899 | – | 6.65
318.15 K, x2 = 0.4992 | 1408.36 | –
318.15 K, x2 = 0.6103 | 1435.77 | 8.6
318.15 K, x2 = 0.6912 | 1452.23 | –
318.15 K, x2 = 0.6995 | – | 10.2
318.15 K, x2 = 0.7817 | 1467.99 | –
318.15 K, x2 = 0.7927 | – | 12.07
318.15 K, x2 = 0.8991 | 1485.13 | 14.42
318.15 K, x2 = 0.9532 | – | 15.79
323.15 K, x2 = 0 | 1100.05 | 1.2
323.15 K, x2 = 0.05 | 1159.37 | 1.66
323.15 K, x2 = 0.0995 | – | 2.02
323.15 K, x2 = 0.0996 | 1206.9 | –
323.15 K, x2 = 0.1502 | 1247.02 | 2.42
323.15 K, x2 = 0.2006 | 1280.5 | 2.89
323.15 K, x2 = 0.3 | – | 3.89
323.15 K, x2 = 0.3001 | 1332.77 | –
323.15 K, x2 = 0.4 | – | 4.97
323.15 K, x2 = 0.4021 | 1373.17 | –
323.15 K, x2 = 0.4899 | – | 6.15
323.15 K, x2 = 0.4992 | 1403.26 | –
323.15 K, x2 = 0.6103 | 1430.64 | 7.81
323.15 K, x2 = 0.6912 | 1447.09 | –
323.15 K, x2 = 0.6995 | – | 9.19
323.15 K, x2 = 0.7817 | 1462.82 | –
323.15 K, x2 = 0.7927 | – | 10.76
323.15 K, x2 = 0.8991 | 1479.92 | 12.78
323.15 K, x2 = 0.9532 | – | 13.93
